According to the supplement of paper PMC10307832:

What was measured:
Experiment in all cases: relative viability (nuclei count vs DMSO), 5 days (fraction); higher = more cells survive
[1] = system: A-427
How it was run: (§1)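 Lung cancer cell lines were seeded in 1536-well plates and dosed by pin tool the next day, with either a single drug or a fixed anchor-drug dose combined with five library-drug doses (not always all listed) spaced in √10 steps. Five days later, one step fixed the cells and stained their nuclei (final 0.05% Triton X-100, 1% formaldehyde, 1 ug/ml Hoechst), and nuclei were counted on 4× images. Relative viability is the nuclei count in treated wells divided by the count in vehicle wells, and each value is the median of duplicate plates.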

[2] = system: HCC-15
How it was run: as §1

[3] = system: HCC-78
How it was run: as §1

[4] = system: HOP-62
How it was run: as §1

[5] = system: LC-2-ad
How it was run: as §1

[6] = system: LXF-289
How it was run: as §1

[7] = system: NCI-H1734
How it was run: as §1

[8] = system: NCI-H1755
How it was run: as §1

[9] = system: NCI-H1915
How it was run: as §1

[10] = system: NCI-H1975
How it was run: as §1

[11] = system: NCI-H2126
How it was run: as §1

[12] = system: NCI-H2228
How it was run: as §1

[13] = system: NCI-H2342
How it was run: as §1

[14] = system: NCI-H2347
How it was run: as §1

[15] = system: NCI-H358
How it was run: as §1

[16] = system: NCI-H522
How it was run: as §1

[17] = system: NCI-H647
How it was run: as §1

[18] = system: PC-3 [JPC-3]
How it was run: as §1

[19] = system: RERF-LC-KJ
How it was run: as §1

[20] = system: SK-LU-1
How it was run: as §1

[21] = system: SW 1573
How it was run: as §1

SMILES: COc1cc2nccc(Oc3ccc(NC(=O)Nc4cc(C)on4)c(Cl)c3)c2cc1OC [Tivozanib] + O=C(CCCCCCC(=O)Nc1ccccc1)NO [Vorinostat] (partner 1 µM)
- relative viability ([1]; first compound 0.005 µM): 0.741
- relative viability ([1]; first compound 0.01581 µM): 0.888
- relative viability ([1]; first compound 0.05 µM): 0.824
- relative viability ([1]; first compound 0.1581 µM): 0.857
- relative viability ([1]; first compound 0.5 µM): 0.812
- relative viability ([2]; first compound 0.005 µM): 0.797
- relative viability ([2]; first compound 0.01581 µM): 0.896
- relative viability ([2]; first compound 0.05 µM): 0.857
- relative viability ([2]; first compound 0.1581 µM): 0.863
- relative viability ([2]; first compound 0.5 µM): 0.886
- relative viability ([3]; first compound 0.005 µM): 0.408
- relative viability ([3]; first compound 0.01581 µM): 0.47
- relative viability ([3]; first compound 0.05 µM): 0.412
- relative viability ([3]; first compound 0.1581 µM): 0.467
- relative viability ([3]; first compound 0.5 µM): 0.363
- relative viability ([4]; first compound 0.005 µM): 0.633
- relative viability ([4]; first compound 0.01581 µM): 0.638
- relative viability ([4]; first compound 0.05 µM): 0.652
- relative viability ([4]; first compound 0.1581 µM): 0.376
- relative viability ([4]; first compound 0.5 µM): 0.434
- relative viability ([5]; first compound 0.005 µM): 0.704
- relative viability ([5]; first compound 0.01581 µM): 0.734
- relative viability ([5]; first compound 0.05 µM): 0.694
- relative viability ([5]; first compound 0.1581 µM): 0.592
- relative viability ([5]; first compound 0.5 µM): 0.34
- relative viability ([6]; first compound 0.005 µM): 0.647
- relative viability ([6]; first compound 0.01581 µM): 0.674
- relative viability ([6]; first compound 0.05 µM): 0.741
- relative viability ([6]; first compound 0.1581 µM): 0.939
- relative viability ([6]; first compound 0.5 µM): 0.684
- relative viability ([7]; first compound 0.005 µM): 0.685
- relative viability ([7]; first compound 0.01581 µM): 0.79
- relative viability ([7]; first compound 0.05 µM): 0.813
- relative viability ([7]; first compound 0.1581 µM): 0.578
- relative viability ([7]; first compound 0.5 µM): 0.57
- relative viability ([8]; first compound 0.005 µM): 0.742
- relative viability ([8]; first compound 0.01581 µM): 0.786
- relative viability ([8]; first compound 0.05 µM): 0.739
- relative viability ([8]; first compound 0.1581 µM): 0.706
- relative viability ([8]; first compound 0.5 µM): 0.587
- relative viability ([9]; first compound 0.005 µM): 0.488
- relative viability ([9]; first compound 0.01581 µM): 0.503
- relative viability ([9]; first compound 0.05 µM): 0.567
- relative viability ([9]; first compound 0.1581 µM): 0.391
- relative viability ([9]; first compound 0.5 µM): 0.399
- relative viability ([10]; first compound 0.005 µM): 0.663
- relative viability ([10]; first compound 0.01581 µM): 0.731
- relative viability ([10]; first compound 0.05 µM): 0.712
- relative viability ([10]; first compound 0.1581 µM): 0.699
- relative viability ([10]; first compound 0.5 µM): 0.666
- relative viability ([11]; first compound 0.005 µM): 0.795
- relative viability ([11]; first compound 0.01581 µM): 0.822
- relative viability ([11]; first compound 0.05 µM): 0.82
- relative viability ([11]; first compound 0.1581 µM): 0.482
- relative viability ([11]; first compound 0.5 µM): 0.729
- relative viability ([12]; first compound 0.005 µM): 0.606
- relative viability ([12]; first compound 0.01581 µM): 0.723
- relative viability ([12]; first compound 0.05 µM): 0.761
- relative viability ([12]; first compound 0.1581 µM): 0.599
- relative viability ([12]; first compound 0.5 µM): 0.626
- relative viability ([13]; first compound 0.005 µM): 0.783
- relative viability ([13]; first compound 0.01581 µM): 0.668
- relative viability ([13]; first compound 0.05 µM): 0.719
- relative viability ([13]; first compound 0.5 µM): 0.811
- relative viability ([14]; first compound 0.005 µM): 0.612
- relative viability ([14]; first compound 0.01581 µM): 0.577
- relative viability ([14]; first compound 0.05 µM): 0.61
- relative viability ([14]; first compound 0.1581 µM): 0.797
- relative viability ([14]; first compound 0.5 µM): 0.517
- relative viability ([15]; first compound 0.005 µM): 0.652
- relative viability ([15]; first compound 0.01581 µM): 0.761
- relative viability ([15]; first compound 0.05 µM): 0.779
- relative viability ([15]; first compound 0.1581 µM): 0.62
- relative viability ([15]; first compound 0.5 µM): 0.37
- relative viability ([16]; first compound 0.005 µM): 1
- relative viability ([16]; first compound 0.01581 µM): 1
- relative viability ([16]; first compound 0.05 µM): 0.822
- relative viability ([16]; first compound 0.1581 µM): 0.721
- relative viability ([16]; first compound 0.5 µM): 0.809
- relative viability ([17]; first compound 0.005 µM): 0.555
- relative viability ([17]; first compound 0.01581 µM): 0.654
- relative viability ([17]; first compound 0.05 µM): 0.692
- relative viability ([17]; first compound 0.1581 µM): 0.631
- relative viability ([17]; first compound 0.5 µM): 0.48
- relative viability ([18]; first compound 0.01581 µM): 0.814
- relative viability ([18]; first compound 0.05 µM): 0.801
- relative viability ([18]; first compound 0.1581 µM): 0.691
- relative viability ([18]; first compound 0.5 µM): 0.592
- relative viability ([19]; first compound 0.005 µM): 0.621
- relative viability ([19]; first compound 0.01581 µM): 0.616
- relative viability ([19]; first compound 0.05 µM): 0.734
- relative viability ([19]; first compound 0.1581 µM): 0.58
- relative viability ([19]; first compound 0.5 µM): 0.593
- relative viability ([20]; first compound 0.005 µM): 0.796
- relative viability ([20]; first compound 0.01581 µM): 0.838
- relative viability ([20]; first compound 0.05 µM): 0.707
- relative viability ([20]; first compound 0.1581 µM): 0.6
- relative viability ([20]; first compound 0.5 µM): 0.729
- relative viability ([21]; first compound 0.005 µM): 0.614
- relative viability ([21]; first compound 0.01581 µM): 0.935
- relative viability ([21]; first compound 0.05 µM): 0.677
- relative viability ([21]; first compound 0.1581 µM): 0.506
- relative viability ([21]; first compound 0.5 µM): 0.281
